Reference: patent US10294202B2, “Pyrrolidinones as herbicides” (FMC Corporation, priority 2013, dated 2019)

Columns and labels:
pigweed = experiment: Test C pre-/postemergence herbicide test; type: in vivo, Amaranthus retroflexus
Method in brief: (§1)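 Test compounds, formulated in a surfactant-containing non-phytotoxic solvent blend, are applied to seeded loam/sand soil (preemergence) and to young plants at the 1- to 4-leaf stage in peat-based medium (postemergence). Plants stay 13 to 15 days under greenhouse conditions, then are scored visually relative to controls, 0 = no effect, 100 = complete control.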

galium = experiment: Test C pre-/postemergence herbicide test; type: in vivo, Galium aparine
Method in brief: as §1

johnsongrass = experiment: Test C pre-/postemergence herbicide test; type: in vivo, Sorghum halepense
Method in brief: as §1

wheat = experiment: Test A pre-/postemergence herbicide test; type: in vivo, Triticum aestivum
Method in brief: (§2)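 Planted in loam–sand blend; treated the same day preemergence by directed soil spray, while separately grown plants at one- to two-leaf stage got postemergence spray. Compared visually with untreated controls after approximately 10 days; 100 means complete control.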

wheat (winter wheat) = experiment: Test C pre-/postemergence herbicide test; type: in vivo, Triticum aestivum
Method in brief: as §1

morningglory = experiment: Test C pre-/postemergence herbicide test; type: in vivo, Ipomoea coccinea
Method in brief: as §1

barnyardgrass = experiment: Test C pre-/postemergence herbicide test; type: in vivo, Echinochloa crus-galli
Method in brief: as §1

giant foxtail = experiment: Test A pre-/postemergence herbicide test; type: in vivo, Setaria faberii
Method in brief: as §2

foxtail, giant = experiment: Test C pre-/postemergence herbicide test; type: in vivo, Setaria faberii
Method in brief: as §1

lambsquarters = experiment: Test C pre-/postemergence herbicide test; type: in vivo, Chenopodium album
Method in brief: as §1

[1] = Preemergence, 31 g ai/ha, scale 0 to 100, 0 is no effect and 100 is complete control
[2] = Preemergence, 62 g ai/ha, scale 0 to 100 (0 no effect, 100 complete control)
[3] = Preemergence, 125 g ai/ha, scale 0 to 100 (0 no effect, 100 complete control)
[4] = Postemergence, 125 g ai/ha, 0 to 100 scale, 0 is no effect, 100 is complete control
[5] = Postemergence, 500 g ai/ha, 0 to 100 scale (0 no effect, 100 complete control)
[6] = Preemergence, 125 g ai/ha, 0 to 100 scale where 0 is no effect and 100 is complete control
[7] = preemergence, 500 g ai/ha, 0 to 100 scale, 0 is no effect and 100 is complete control
[8] = Postemergence, 31 g ai/ha, scale 0 to 100 (0 no effect, 100 complete control)
[9] = Postemergence, 62 g ai/ha, scale 0 (no effect) to 100 (complete control)
[10] = Postemergence, 125 g ai/ha, scale 0 to 100 (0 no effect, 100 complete control)
[11] = Postemergence, 250 g ai/ha, scale 0 to 100 (0 no effect, 100 complete control)

O=C1NCC(c2ccc(C(F)(F)F)c(F)c2)C1C(=O)Nc1ccccc1F (racemic) [Compound 246]
90: Galium plant response rating (galium; [2]) | Plant response rating, Galium (galium; [3]) | Plant response rating (scale of 0 to 100), Galium (galium; Preemergence, 250 g ai/ha) | Plant response rating (scale of 0 to 100; 0 is no effect, 100 is complete control), Barnyardgrass (barnyardgrass; Preemergence, 250 g ai/ha) | Plant response rating, Foxtail, Giant (giant foxtail; [7]) | Foxtail, Giant plant response rating (foxtail, giant; [2]) | Plant response rating (scale of 0 to 100), Lambsquarters (lambsquarters; Preemergence, 250 g ai/ha)
20: Johnsongrass plant response rating (johnsongrass; [2]) | Barnyardgrass plant response rating (barnyardgrass; [1])
100: Plant response rating (scale of 0 to 100), Pigweed (pigweed; Preemergence, 250 g ai/ha)
85: Foxtail, Giant plant response rating (foxtail, giant; [1])
75: Pigweed plant response rating (pigweed; [2]) | Plant response rating, Pigweed (pigweed; [3]) | Plant response rating, Barnyardgrass (barnyardgrass; Preemergence, 62 g ai/ha, scale 0 to 100) | Plant response rating, Barnyardgrass (barnyardgrass; [3])
10: Galium plant response rating (galium; [1]) | Plant response rating, Wheat (wheat (winter wheat); [3]) | Plant response rating, Morningglory (morningglory; [3])
30: Pigweed plant response rating (pigweed; [1]) | Plant response rating, Wheat (wheat; [5]) | Plant response rating (scale of 0 to 100), Wheat (wheat (winter wheat); Preemergence, 250 g ai/ha)
80: Plant response rating, Foxtail, Giant (giant foxtail; [5]) | Plant response rating, Foxtail, Giant (giant foxtail; [6]) | Plant response rating, Lambsquarters (lambsquarters; [3])
65: Lambsquarters plant response rating (lambsquarters; [1]) | Lambsquarters plant response rating (lambsquarters; [2])
40: Plant response rating, Foxtail, Giant (giant foxtail; [4])
0: Johnsongrass plant response rating (johnsongrass; [1]) | Plant response rating, Johnsongrass (johnsongrass; [3]) | Plant response rating, Wheat (wheat; [4]) | Plant response rating, Wheat (wheat; [6]) | Wheat plant response rating (wheat (winter wheat); [1]) | Wheat plant response rating (wheat (winter wheat); [2])
95: Plant response rating, Foxtail, Giant (foxtail, giant; [3]) | Plant response rating (scale of 0 to 100), Foxtail, Giant (foxtail, giant; Preemergence, 250 g ai/ha)
5: Plant response rating (scale of 0 to 100), Johnsongrass (johnsongrass; Preemergence, 250 g ai/ha) | Morningglory plant response rating (morningglory; [1]) | Morningglory plant response rating (morningglory; [2]) | Plant response rating (scale of 0 to 100), Morningglory (morningglory; Preemergence, 250 g ai/ha)

O=C1NCC(c2cc(F)cc(F)c2)C1C(=O)Nc1cccc(F)c1F (racemic) [Compound 279]
80: Plant response rating (scale of 0 to 100), Johnsongrass (johnsongrass; Preemergence, 250 g ai/ha) | Barnyardgrass plant response rating (barnyardgrass; [1]) | Plant response rating, Foxtail, Giant (giant foxtail; [4])
5: Pigweed plant response rating (pigweed; [2]) | Plant response rating, Morningglory (morningglory; [8])
65: Plant response rating, Lambsquarters (lambsquarters; [3])
90: Plant response rating, Foxtail, Giant (giant foxtail; [5]) | Plant response rating, Foxtail, Giant (giant foxtail; [6]) | Plant response rating, Foxtail, Giant (giant foxtail; [7]) | Plant response rating, Foxtail, Giant (foxtail, giant; [10]) | Plant response rating, Foxtail, Giant (foxtail, giant; [11]) | Foxtail, Giant plant response rating (foxtail, giant; [1]) | Plant response rating (scale of 0 to 100), Lambsquarters (lambsquarters; Preemergence, 250 g ai/ha)
60: Plant response rating, Wheat (wheat; [5]) | Plant response rating, Morningglory (morningglory; [9])
10: Plant response rating, Pigweed (pigweed; [9]) | Plant response rating, Morningglory (morningglory; [3]) | Plant response rating (scale of 0 to 100), Morningglory (morningglory; Preemergence, 250 g ai/ha)
98: Plant response rating (scale of 0 to 100; 0 is no effect, 100 is complete control), Barnyardgrass (barnyardgrass; Preemergence, 250 g ai/ha) | Plant response rating, Foxtail, Giant (foxtail, giant; [3]) | Plant response rating (scale of 0 to 100), Foxtail, Giant (foxtail, giant; Preemergence, 250 g ai/ha)
85: Plant response rating, Galium (galium; [3]) | Plant response rating (scale of 0 to 100), Galium (galium; Preemergence, 250 g ai/ha) | Plant response rating, Barnyardgrass (barnyardgrass; [10]) | Plant response rating, Barnyardgrass (barnyardgrass; [11])
40: Plant response rating, Wheat (wheat; Postemergence, 125 g ai/ha, visual rating on 0 to 100 scale (0 no effect, 100 complete control), approx. 10 days)
0: Pigweed plant response rating (pigweed; [1]) | Plant response rating, Pigweed (pigweed; [3]) | Plant response rating, Galium (galium; [8]) | Galium plant response rating (galium; [1]) | Galium plant response rating (galium; [2]) | Plant response rating, Johnsongrass (johnsongrass; [8]) | Plant response rating, Johnsongrass (johnsongrass; [9]) | Plant response rating, Johnsongrass (johnsongrass; [10]) | Plant response rating, Johnsongrass (johnsongrass; [11]) | Johnsongrass plant response rating (johnsongrass; [1]) | Plant response rating, Wheat (wheat (winter wheat); [8]) | Plant response rating, Wheat (wheat (winter wheat); [9]) | Plant response rating, Wheat (wheat (winter wheat); [10]) | Plant response rating, Wheat (wheat (winter wheat); [11]) | Wheat plant response rating (wheat (winter wheat); [1]) | Morningglory plant response rating (morningglory; [1]) | Morningglory plant response rating (morningglory; [2]) | Plant response rating, Foxtail, Giant (foxtail, giant; [8]) | Plant response rating, Lambsquarters (lambsquarters; [8]) | Plant response rating, Lambsquarters (lambsquarters; [9]) | Lambsquarters plant response rating (lambsquarters; [1]) | Lambsquarters plant response rating (lambsquarters; [2])
75: Plant response rating (scale of 0 to 100), Pigweed (pigweed; Preemergence, 250 g ai/ha)
70: Plant response rating, Johnsongrass (johnsongrass; [3])
30: Plant response rating, Pigweed (pigweed; [8]) | Plant response rating, Pigweed (pigweed; [10]) | Plant response rating, Galium (galium; [10]) | Plant response rating, Galium (galium; [11]) | Plant response rating (scale of 0 to 100), Wheat (wheat (winter wheat); Preemergence, 250 g ai/ha) | Plant response rating, Morningglory (morningglory; [10]) | Plant response rating, Foxtail, Giant (foxtail, giant; [9])
15: Plant response rating, Galium (galium; [9]) | Wheat plant response rating (wheat (winter wheat); [2]) | Plant response rating, Barnyardgrass (barnyardgrass; [8])
95: Barnyardgrass plant response rating (barnyardgrass; [2]) | Plant response rating, Barnyardgrass (barnyardgrass; [3]) | Foxtail, Giant plant response rating (foxtail, giant; [2])
25: Johnsongrass plant response rating (johnsongrass; [2]) | Plant response rating, Morningglory (morningglory; [11])
20: Plant response rating, Pigweed (pigweed; [11])
55: Plant response rating, Barnyardgrass (barnyardgrass; [9])
45: Plant response rating, Lambsquarters (lambsquarters; [10]) | Plant response rating, Lambsquarters (lambsquarters; [11])
